Assay results published in the OPERA property sets (Mansouri et al. 2018).
Converted amounts (≈) assume the structure as drawn.

Conditions: for solubility: 22 °C

Compound	logP	solubility
CCCCNC(=O)COC(=O)c1ccccc1	2.36	1740 µM (≈ 410 µg/mL)
CCCC(=O)OCOC(=O)c1ccccc1OC(C)=O	2.5	
CC(=O)Oc1ccccc1C(=O)OCCN(C)C(C)=O	1.46	
CC(=O)N(C)CCOC(=O)c1ccccc1	1.24	
CCCCCCN(C)C(=O)COC(=O)c1ccccc1	2.99	
COCCN(CCOC)C(=O)COC(=O)c1ccccc1	1.28	
CCCCCCNC(=O)COC(=O)c1ccccc1	2.81	125 µM (≈ 33 µg/mL)
CCN(CC)C(=O)COC(=O)c1ccccc1		8500 µM (≈ 2000 µg/mL)
CCCCN(CCCC)C(=O)COC(=O)c1ccccc1		275 µM (≈ 80 µg/mL)
C=CCN(CC=C)C(=O)COC(=O)c1ccccc1		2740 µM (≈ 710 µg/mL)
CCCOC(=O)n1c(-c2cscn2)nc2ccccc21	2.98	
CC(O)CN(CC(C)O)C(=O)COC(=O)c1ccccc1 (stereo not drawn)	0.66	
CCN(CC)C(=O)C(C)OC(=O)c1ccccc1 (stereo not drawn)	2.3	
CCCCCCN(CCCCCC)C(=O)COC(=O)c1ccccc1	6.53	

The next lines start with the values.

logP	solubility	Compound
0.99	19200 µM (≈ 3700 µg/mL)	CNC(=O)COC(=O)c1ccccc1
1.73	1850 µM (≈ 410 µg/mL)	CC(C)NC(=O)COC(=O)c1ccccc1
1.58	1360 µM (≈ 320 µg/mL)	CC(=O)N(C)C(=O)COC(=O)c1ccccc1
	16900 µM (≈ 4200 µg/mL)	O=C(OCC(=O)N1CCOCC1)c1ccccc1
1.24	3980 µM (≈ 880 µg/mL)	CC(=O)NC(=O)COC(=O)c1ccccc1
0.2		NC(=O)C1CCCN1C(=O)COC(=O)c1ccccc1 (stereo not drawn)
	42500 µM (≈ 8800 µg/mL)	CN(C)C(=O)COC(=O)c1ccccc1
0.42		CC(NC(=O)COC(=O)c1ccccc1)C(N)=O (stereo not drawn)
2.26	1360 µM (≈ 320 µg/mL)	CC(C)(C)NC(=O)COC(=O)c1ccccc1
	2870 µM (≈ 750 µg/mL)	O=C(OCC(=O)N1CCCCCC1)c1ccccc1
0.63	44800 µM (≈ 11800 µg/mL)	O=C(OCC(=O)N1CCC(O)CC1)c1ccccc1
	3150 µM (≈ 780 µg/mL)	O=C(OCC(=O)N1CCCCC1)c1ccccc1
	1920 µM (≈ 480 µg/mL)	C[C@H](NC(=O)COC(=O)c1ccccc1)C(N)=O
0.69	22900 µM (≈ 4100 µg/mL)	NC(=O)COC(=O)c1ccccc1
1.28	5790 µM (≈ 1200 µg/mL)	CCNC(=O)COC(=O)c1ccccc1
0.25		O=C(COC(=O)c1ccccc1)NC(CO)(CO)CO
0.79		O=C(OCC(=O)N1CCC1C(=O)O)c1ccccc1 (stereo not drawn)
1.88	2890 µM (≈ 640 µg/mL)	CCCNC(=O)COC(=O)c1ccccc1
